Read-outs that look alike come from different tables or passages of the source.
Legend:
rats = experiment: In vivo acute toxicity test (LD50); conditions: single dose, 2 weeks observation
Procedure: In order to determine the acute toxicities of the compounds prepared in Examples, 6-week old specific pathogen-free (SPF) rats each weighing […] were divided into groups of 10 rat each.
In case of subcutaneous administration, each of the compounds was dissolved in 5% PEG400 solution to a concentration of 20 mg/ml, the resulting solution was serially diluted with 5% PEG400 solution to concentrations of 5, 2.5, 1.25 and 0.625 mg/ml, and the dilutions were subcutaneously injected once to the rats at a dose of 10 ml/kg body weight.
In case of oral administration, each of the compounds was dissolved in soybean oil to a concentration of 180 mg/ml, the resulting solution was serially diluted with soybean oil to concentrations of 80, 20 and 5 mg/ml, and the dilutions were orally administered once to the rats at a dose of 20 ml/kg body weight. […]
During 2 weeks after the administration of the compounds, the death rate, clinical symptoms and weight changes of the rats were observed, and hematological and biochemical tests on blood samples were performed. Then, the rats were sacrificed and the internal organs were visually examined to check any abnormal signs in the organs of chest and abdomen.

[1] = test system: osteoclast (TRAP-positive multinuclear cell) formation; experiment: Inhibitory effect on osteoclast formation (TRAP staining); format: cell-based, mice; conditions: compared to control; for inhibition at 0.3 µM / inhibition at 1 µM / inhibition at 3 µM: Mus musculus, Osteoclast, read-out: Osteoclast formation inhibitory effects (%)
Summary of the method: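 Non-adherent bone marrow cells from 7–9-week-old female mice, 2×10^5 per well, cultured 8 days with M-CSF (20 ng/ml), RANKL (30 ng/ml) and compound at 0.3, 1.0 or 3 μM. Formation scored by TRAP staining after fixation, 1 h at 37 °C, pH 5.0.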

MG-63 cells = experiment: Cytotoxicity test against osteoblast (MTT); format: cell-based, human
Procedure: (§1) In order examine the toxicities of the compounds of the Examples against osteoclast pregenitors, pregenitor cells were aliquotted onto a 96-well microplate at a density of 2×10^5 cells per well, treated with 2, 4 and 8 μM of the test compounds, respectively, and cultured for 48 hrs in α-MEM supplemented with 20 ng/ml of M-CSF (Peprotech, USA) using 37° C. incubator (5% CO2). At 3 hrs before the culture was finished, 50 μl of MTT (3-(4,5-dimethylthiazol-2-yl)-2,5-diphenyltetrazolium bromide) solution (50 μg/ml) was added to each well. Upon completion of the cell culture, the supernatant was removed, and the precipitated dye was reacted with 100 μl of isopropanol/0.04 N HCl at room temperature for 30 min to dissolve it. The absorbances of the wells were measured at 550 nm, and the relative absorbance of each well relative to that of the control (set as 100) is shown in Table 6.
In order to examine the toxicity of the compounds of the Examples against osteoblasts, human osteosarcoma-derived cell line, MG-63 (ATCC No. CRL-1427) cells were treated with 0.1, 0.3, 1.0 and 3.0 μM of the compounds of the Examples, and cultured in DMEM supplemented with 10% FBS (fetal bovine serum).

[2] = In vitro pharmacokinetics: metabolic stability in liver microsome; format: in vitro ADME; conditions: human liver microsome 1 mg/ml, 20 μM compound; for half-life at 20 µM: liver microsomes
Procedure: Metabolic stabilities of the compounds of the Examples were examined by employing microsome samples prepared from the human liver.
Each 20 μM of the compounds were reacted with 1 mg/ml of liver microsome and the half-lives and one-hour stabilities of the compounds were determined.

osteoclasts = experiment: Inhibitory effect on resorption activity of osteoclast (resorption pit area on calcium phosphate-coated plate); format: cell-based, mice; conditions: compared to control
Procedure: After finishing culture, the plate was washed with distilled water, and 50 μl/well of 5% sodium hypochlorite was added to the plate. The plate was let alone for 5 min, washed again with distilled water to remove the adherent cells, and dried at room temperature. Then, the area of formed resorption pits was calculated by means of Image Pro Plus software (Media Cybernetics Ver. 3.0).

[3] = In vivo pharmacokinetics using female mice (serum concentration, HPLC); conditions: I.V.
Procedure: Female mice each weighing […] were divided into groups of 5 mice each. The mice were anesthetized with ether, catheterized in their femoral artery and vein, respectively, and administered with 0.5 mg/kg body weight of compounds 234 and 274, and 5 mg/kg body weight of compounds 388, 404 and 415, respectively, via intravenous injection. Alternatively, 15 mg/kg body weight of compound 274 and 10 mg/kg body weight of compound 234 were orally administered to the mice.
At 0, 5, 10, 15 and 30 minutes and 1, 2, 4, 6, 9 and 12 hours after the intravenous injection, or at 0, 10, 20 and 40 minutes and 1, 2, 4, 6, 9 and 12 hours after the oral administration, 0.3 ml blood samples were taken from the mice through femoral artery. The blood samples were kept on an ice bath for 30 minutes and centrifuged at 3,000 rpm for 10 minutes to obtain a supernatant (serum). The supernatant samples were stored at −20° C.
Standard solution: Compounds 234, 274, 388, 404 and 415 were respectively dissolved in methanol to a concentration of 1 mg/ml to obtain stock solutions. The stock solutions were diluted with methanol to obtain standard solutions having concentrations of 40, 20, 10, 2, 1, 0.5, 0.2, 0.05 and 0.02 μg/ml, respectively.
Standard calibration curve: A stand calibration curve was prepared by employing calibration concentrations of 0.002, 0.005, 0.02, 0.05, 0.1, 0.2, 1, 2 and 4 μg/ml.
10 μl each of the standard solutions prepared above was added to 100 μl of normal serum sample and diluted 10 times. 250 μl of acetonitrile was added to the resulting dilution and the mixture was centrifuged for 10 minutes to obtain a supernatant. 300 μl of the supernatant was dried by evaporation under a nitrogen atmosphere and reconstituted by adding 50 μl of methanol. 20 μl of the resulting solution was analyzed by HPLC to prepare a standard calibration curve. HPLC was performed with Shimadzu ODS2 column (4.6×250 mm, 5 μm by employing a mixture of methanol/water (90/10 (v/v)) as the mobile phase at a flow rate of 1.2 ml/min, and measuring the absorbance at 240 nm.
Extraction: 100 μl of the serum sample obtained in (4-2-1) was put into a 1 ml microtube and 10 μl of methanol was added thereto. 250 μl of acetonitrile was added to the microtube and the mixture was centrifuged for 10 minutes to obtain a supernatant. 300 μl of the supernatant was dried by evaporation under a nitrogen atmosphere and reconstituted by adding 50 μl of methanol. 20 μl of the resulting solution was analyzed by the HPLC method as above.
Average concentrations of the compounds in the serum samples were plotted in a semi-log scale against the time lapsed after the administration, and the pharmacokinetic parameters were determined as a non-compartment open model by employing WinNonlin® program (Pharsight Corporation).

[4] = test system: osteoclast pregenitor cells; experiment: Cytotoxicity against osteoclast pregenitor (MTT); format: cell-based, mice; conditions: 48 hrs, absorbance at 550 nm
Procedure: as §1

[5] = 0.3 μM, 8 days culture with M-CSF and RANKL
[6] = 1.0 μM, 8 days culture with M-CSF and RANKL
[7] = 3.0 μM, 8 days culture with M-CSF and RANKL

SMILES | LD50 (rats; PO) | LD50 (rats; SC) [mg/kg body weight] | Osteoclast formation inhibitory effects (%) [1, 5] [%] | Osteoclast formation inhibitory effects (%) [1, 6] [%] | Osteoclast formation inhibitory effects (%) [1, 7] [%] | relative absorbance relative to that of the control (set as 100), MTT (MG-63 cells; 0.33 uM) | relative absorbance relative to that of the control (set as 100), MTT (MG-63 cells; 1 uM) | relative absorbance relative to that of the control (set as 100), MTT (MG-63 cells; 3 uM) | Half-life [2] [h] | One-hour stability [2] [%] | Reduction (%) of the resorption pit area of osteoclasts (osteoclasts; 0.3 uM) [%] | Reduction (%) of the resorption pit area of osteoclasts (osteoclasts; 1 uM) [%] | Reduction (%) of the resorption pit area of osteoclasts (osteoclasts; 3 uM) [%] | relative absorbance relative to that of the control (set as 100), MTT (MG-63 cells; 0.11 uM) | further results
CCCCCCOc1cccc(/C(C)=N/OCc2ccccc2/C(=C\OC)C(=O)OC)c1 [compound 15, (E)-methyl 2-(((({1E}-1-(3-(n-hexyloxy)phenyl)ethylidene)amino)oxy)methyl)phenyl-3-methoxyacrylate] | >2000 mg/kg body weight | >50 | 92 | 100 | 100 | 105 | 85 | 76 | 0.615 | 33 | 41 | 57 | 93 |  | 
CO/C=C(/C(=O)OC)c1ccccc1COc1cccc(C(C)F)c1 (stereo not drawn) [compound 169] | >1000 mg/kg body weight | 10 |  |  |  |  |  |  |  |  |  |  |  |  | 
CO/C=C(/C(=O)OC)c1ccccc1COc1cccc(CN2CCOCC2)c1 [Compound No. 404, (E)-methyl-2-[2-((3-(morpholinomethyl)phenoxy)-methyl)phenyl]-3-methoxyacrylate] |  |  |  |  |  |  |  |  |  |  |  |  |  |  | inhibition at 0.3 µM ([1]; 0.3 μM (Table 4b)): 9%; inhibition at 1 µM ([1]; 1 μM (Table 4b)): 63%; inhibition at 3 µM ([1]; 3 μM (Table 4b)): 100%; relative absorbance (MTT) relative to control (set as 100) (MG-63 cells; 0.33 μM compound): 83; relative absorbance (MTT) relative to control (set as 100) (MG-63 cells; 1 μM compound): 92; relative absorbance (MTT) relative to control (set as 100) (MG-63 cells; 3 μM compound): 94; AUC (area under the curve of blood concentration versus time) [3]: 97.2 ± 14.8 µg·h/mL; clearance ([3]; mouse, serum, iv, read-out: CL (clearance) (converted)): 0.0567 mL/min; Half-life ([3]; mouse, serum, iv, read-out: Half-life (converted)): 10.2 ± 1.9 h; Vd ([3]; mouse, serum, iv, read-out: Vd (volume of distribution)): 0.0462 ± 0.0064 L/kg; half-life at 20 µM [2]: 0.957 ± 0.0383 h
CO/C=C(/C(=O)OC)c1ccc(Cl)cc1COc1ccc(OCC2CC2)cc1 | 100-300 mg/kg body weight | 5 |  |  |  |  |  |  |  | 70 | 100 | 100 | 100 |  | inhibition at 0.3 µM ([1]; 192 h, 0.3 μM, 8 days culture with M-CSF and RANKL): 98%; inhibition at 1 µM ([1]; 192 h, 1.0 μM, 8 days culture with M-CSF and RANKL): 100%; inhibition at 3 µM ([1]; 192 h, 3.0 μM, 8 days culture with M-CSF and RANKL): 100%; half-life at 20 µM [2]: > 3 h
C=CCOc1cccc(OCc2ccccc2/C(=C\OC)C(=O)OC)c1 [compound 211] | 500 mg/kg body weight | 51 | 23 | 96 | 100 | 101 | 105 | 106 | 1.77 | 60 | 96 | 100 | 100 | 103 | relative absorbance relative to that of the control (set as 100), MTT ([4]; 2 uM): 88; relative absorbance relative to that of the control (set as 100), MTT ([4]; 4 uM): 103; relative absorbance relative to that of the control (set as 100), MTT ([4]; 8 uM): 103
C=CCOc1ccc(OCc2cc(Cl)ccc2/C(=C\OC)C(=O)OC)cc1 [compound 264] | 269 mg/kg body weight | 25 | 98 | 100 | 100 | 107 | 104 | 92 | >3 | 80 | 100 | 100 | 100 | 103 | 
C=CCOc1ccc(OCc2ccccc2/C(=C\OC)C(=O)OC)cc1 [compound 179] | 500 mg/kg body weight | 42 | 84 | 100 | 100 | 111 | 108 | 106 | >3 | 70 | 86 | 100 | 100 | 117 | 

From patent publication US7879835B2 (Korea Research Institute of Chemical Technology, priority 2004, dated 2011)
